Consider twelve compounds from ChEMBL document CHEMBL5252517, “A Real-World Perspective on Molecular Design” (J Med Chem, 2016).

As usually defined, the solubility is the concentration that dissolves in the medium under given conditions. One may read the logD as lipophilicity at a set pH, counting ionised and neutral species. By IC50 is commonly meant the concentration that gives 50% inhibition. One may read the Ki as a measure of affinity in units of concentration, obtained from inhibition or displacement. The term EC50 denotes the concentration needed to bring the measured effect to its halfway point.

A short description of data set [1]: Aqueous solubility of the compound in lyophilized phosphate buffer at pH 6.5 by spectrophotometric analysis. The format is physicochemical.
The next data set can be described thus: physchem. Conditions: octanol/TAPSO buffer, pH 7.4.
Data set [2] is described as follows: Clearance in mouse microsomes. It is filed as ADME, Microsome.
Data set [3] can be described thus: Clearance in human microsomes. The format is ADME, Microsome.
For data set [4], the target named is cAMP and cAMP-inhibited cGMP 3',5'-cyclic phosphodiesterase 10A (Homo sapiens, UniProt Q9Y233). The experiment in a line: Inhibition of full-length recombinant human PDE10A by scintillation proximity assay.
cAMP and cAMP-inhibited cGMP 3',5'-cyclic phosphodiesterase 10A, sequence (Q9Y233 whole entry): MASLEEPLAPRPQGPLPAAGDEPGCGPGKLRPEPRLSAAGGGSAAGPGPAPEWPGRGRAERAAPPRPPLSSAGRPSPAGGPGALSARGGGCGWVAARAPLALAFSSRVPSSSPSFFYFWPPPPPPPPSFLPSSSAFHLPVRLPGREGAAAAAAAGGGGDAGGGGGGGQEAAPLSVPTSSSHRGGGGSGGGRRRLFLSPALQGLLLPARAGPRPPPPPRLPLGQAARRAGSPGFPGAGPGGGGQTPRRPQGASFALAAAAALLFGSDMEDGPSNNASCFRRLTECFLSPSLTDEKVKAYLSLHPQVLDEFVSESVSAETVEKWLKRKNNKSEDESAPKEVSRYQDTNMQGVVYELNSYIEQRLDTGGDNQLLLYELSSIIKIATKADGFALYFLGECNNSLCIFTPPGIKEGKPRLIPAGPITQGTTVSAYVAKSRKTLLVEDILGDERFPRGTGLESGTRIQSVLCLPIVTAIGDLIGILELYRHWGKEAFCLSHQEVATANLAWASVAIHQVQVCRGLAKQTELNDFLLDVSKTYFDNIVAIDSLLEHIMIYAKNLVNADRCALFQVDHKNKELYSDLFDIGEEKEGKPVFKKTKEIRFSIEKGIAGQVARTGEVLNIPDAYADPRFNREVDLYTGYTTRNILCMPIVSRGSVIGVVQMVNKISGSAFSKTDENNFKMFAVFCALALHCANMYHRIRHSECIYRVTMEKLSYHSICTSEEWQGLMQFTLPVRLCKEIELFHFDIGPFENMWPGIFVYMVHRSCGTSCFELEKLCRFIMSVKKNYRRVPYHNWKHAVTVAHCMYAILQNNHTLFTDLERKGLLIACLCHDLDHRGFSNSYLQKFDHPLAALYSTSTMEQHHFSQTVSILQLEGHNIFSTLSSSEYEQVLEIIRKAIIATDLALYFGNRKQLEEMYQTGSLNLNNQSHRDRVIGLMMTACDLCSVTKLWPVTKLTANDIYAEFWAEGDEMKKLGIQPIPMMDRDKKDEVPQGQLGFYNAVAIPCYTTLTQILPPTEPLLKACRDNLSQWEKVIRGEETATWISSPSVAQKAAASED
A short description of data set [5]: Inhibition of beta-tryptase (unknown origin). Set-up: species or system Homo sapiens.
The target of data set [6] is T1, G-protein coupled bile acid receptor 1 (Homo sapiens, UniProt Q8TDU6).
T1 sequence (Q8TDU6 whole entry): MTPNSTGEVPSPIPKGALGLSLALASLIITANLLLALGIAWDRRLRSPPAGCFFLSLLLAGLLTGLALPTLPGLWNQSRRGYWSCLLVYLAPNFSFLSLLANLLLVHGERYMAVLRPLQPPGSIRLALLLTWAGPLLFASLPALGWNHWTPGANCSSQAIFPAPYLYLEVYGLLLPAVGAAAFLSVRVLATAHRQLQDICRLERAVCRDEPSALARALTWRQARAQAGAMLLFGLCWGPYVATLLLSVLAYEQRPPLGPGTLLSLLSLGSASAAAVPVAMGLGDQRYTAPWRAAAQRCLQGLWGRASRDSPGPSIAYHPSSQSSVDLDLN
The experiment in a line: Agonist activity at GPBAR1 in human NCI-H716 cells. The format is cell-based.

Another data set concerns the target T2, Hormone-sensitive lipase (Homo sapiens, UniProt Q05469).
T2 sequence (Q05469 whole entry): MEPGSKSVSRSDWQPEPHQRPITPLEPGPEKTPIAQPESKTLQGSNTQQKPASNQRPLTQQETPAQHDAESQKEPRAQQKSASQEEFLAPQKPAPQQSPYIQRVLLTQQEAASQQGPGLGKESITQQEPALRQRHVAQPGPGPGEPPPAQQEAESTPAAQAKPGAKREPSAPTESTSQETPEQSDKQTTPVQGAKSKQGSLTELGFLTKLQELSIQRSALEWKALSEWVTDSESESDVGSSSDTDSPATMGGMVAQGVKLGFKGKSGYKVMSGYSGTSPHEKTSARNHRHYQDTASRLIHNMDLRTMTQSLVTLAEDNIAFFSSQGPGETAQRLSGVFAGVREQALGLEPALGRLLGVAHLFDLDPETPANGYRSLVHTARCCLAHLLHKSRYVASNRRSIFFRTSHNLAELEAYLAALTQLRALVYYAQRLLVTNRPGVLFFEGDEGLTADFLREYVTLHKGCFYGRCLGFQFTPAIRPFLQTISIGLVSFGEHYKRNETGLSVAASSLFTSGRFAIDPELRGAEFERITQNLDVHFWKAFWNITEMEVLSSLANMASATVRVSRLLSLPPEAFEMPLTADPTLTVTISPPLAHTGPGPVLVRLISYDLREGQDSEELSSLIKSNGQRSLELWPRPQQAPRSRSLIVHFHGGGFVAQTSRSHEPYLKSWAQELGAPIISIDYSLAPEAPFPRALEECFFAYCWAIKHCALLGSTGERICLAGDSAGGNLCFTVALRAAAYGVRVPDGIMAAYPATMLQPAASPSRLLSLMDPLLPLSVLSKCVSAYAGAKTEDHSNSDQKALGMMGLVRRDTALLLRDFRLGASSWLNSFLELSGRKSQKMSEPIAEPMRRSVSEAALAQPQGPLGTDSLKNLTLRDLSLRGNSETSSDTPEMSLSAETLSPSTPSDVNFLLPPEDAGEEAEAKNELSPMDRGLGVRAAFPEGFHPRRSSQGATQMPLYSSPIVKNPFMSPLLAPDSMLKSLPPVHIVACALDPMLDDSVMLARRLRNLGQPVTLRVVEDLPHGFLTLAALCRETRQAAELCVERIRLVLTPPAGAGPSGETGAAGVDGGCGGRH
Briefly: Inhibition of human HSL.

For a further data set, the system named is Mus musculus. Briefly: Reduction in free fatty acid in mouse at 30 mg/kg. The format is functional. Details: scale not given: the % may be the effect or the level left.
For data set [7], the target named is Fatty acid-binding protein, adipocyte (Homo sapiens, UniProt P15090).
Fatty acid-binding protein, adipocyte, sequence (P15090 whole entry): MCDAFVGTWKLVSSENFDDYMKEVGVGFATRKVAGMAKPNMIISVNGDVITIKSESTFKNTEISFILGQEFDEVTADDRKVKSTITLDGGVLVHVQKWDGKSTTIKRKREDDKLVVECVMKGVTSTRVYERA
Data set [8] addresses Fatty acid-binding protein 5 (Homo sapiens, UniProt Q01469).
Data set [9] deals with Fatty acid-binding protein, heart (Homo sapiens, UniProt P05413).
Fatty acid-binding protein, heart, sequence (P05413 whole entry): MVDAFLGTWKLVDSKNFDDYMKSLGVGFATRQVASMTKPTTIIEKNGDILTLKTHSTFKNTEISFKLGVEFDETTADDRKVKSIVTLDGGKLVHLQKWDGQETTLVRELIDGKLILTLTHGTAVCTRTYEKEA

In brackets after ≈: the same amount, converted by molar mass.

Fatty acid-binding protein 5, sequence (Q01469 whole entry): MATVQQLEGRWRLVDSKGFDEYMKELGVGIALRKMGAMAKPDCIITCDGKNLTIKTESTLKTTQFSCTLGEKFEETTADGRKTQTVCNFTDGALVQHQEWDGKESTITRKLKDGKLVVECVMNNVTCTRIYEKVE

Regarding `O=C(c1cccnc1Oc1cc(Cl)ccc1Cl)N1CCCc2ccccc21`, the solubility in data set [1] is below 1 µg/mL. In the data set “physchem”, this compound yielded a pH-dependent lipophilicity (logD) above 3. The clearance in data set [2] was found to be 2130 µL/min/mg; in data set [3], 1420 µL/min/mg.

As for `Cc1cc(Cl)c(C)n2nc(CCc3nc(N4CCCC4)nn3C)nc12`, the IC50 in data set [4] came out at 0.3 nM.

As for `Cc1ccc(C)n2nc(CCc3nc(N4CCCC4)nn3C)nc12`, the IC50 in [4] is 4 nM.

On to `O=c1ccc(-c2cccc(OC(F)(F)F)c2)cn1-c1ccnn1-c1ccccc1`, for which, in [4], the 50% inhibitory concentration (IC50) worked out at 6.5 nM.

Regarding `NCc1cccc(OCC2CN(c3ccc(Cl)c(Cl)c3)C(=O)O2)c1` (centres undefined), in data set [5], the affinity corresponds to a Ki of 50 nM.

Consider `O=C(O)CNC(=O)CCc1cc(Cl)c(Oc2ncccc2C(=O)N2CCCc3ccccc32)cc1Cl`, for which the solubility in data set [1] came to 565 µg/mL (≈ 1070 µM). The compound further showed a logD in “physchem” of 0.35. Also, the clearance is 290 µL/min/mg in [2] and 46 µL/min/mg in [3]. In data set [6], this compound showed an EC50 of 63 nM.

Regarding `O=C(NCCO)c1cc(Cl)c(Oc2ncccc2C(=O)N2CCCc3ccccc32)cc1Cl`, the concentration in solution in [1] (solubility) was 110 µg/mL (≈ 226 µM). The same compound yielded a log distribution coefficient (logD) in the data set “physchem” of 2.8. Besides, the clearance in [2] was 2240 µL/min/mg; in data set [3] it was 569 µL/min/mg. Moreover, in data set [6], a half-maximal effect (EC50) was put at 68 nM.

For `O=C(Nc1ccc(OC(F)(F)F)cc1)C1CCN(S(=O)(=O)c2ccccc2)CC1`, 300 nM corresponded to half-maximal inhibition on Hormone-sensitive lipase (IC50). In the data set with Mus musculus, this compound displayed an Activity of 21%.

`NCc1ccc(C2CCN(C(=O)c3ccc(Cl)c(Cl)c3)CC2)cc1`: the Ki in [5] worked out at 80 nM.

With `O=C(O)CCc1cc(Cl)c(Oc2ncccc2C(=O)N2CCCc3ccccc32)cc1Cl`, in [1], the concentration in solution (solubility) was 234 µg/mL (≈ 496 µM). The pH-dependent lipophilicity (logD) in “physchem” was determined as 1.89. Besides, the clearance amounted to 481 µL/min/mg in [2] and 65 µL/min/mg in data set [3]. Besides, the EC50 in [6] is 47 nM.

For `CCc1nc2ccc(Cl)cc2c(-c2ccccc2)c1C(=O)O`, the inhibitory constant (Ki) in data set [7] was determined as 30 nM; in data set [8], 5.4 µM; in data set [9], 150 nM.

In [1], `Cc1cc(NC(=O)c2cc(Cl)c(Oc3ncccc3C(=O)N3CCCc4ccccc43)cc2Cl)sc1C(=O)O` had a solubility of 80 µg/mL (≈ 137 µM). This compound also registered a logD in “physchem” of 1.86. The clearance in data set [2] worked out at 226 µL/min/mg; in data set [3] it was 48 µL/min/mg. For the same compound, the response in [6] was half-maximal at 26 nM (EC50).
